Values quoted from earlier work as cited in patent US5591773A, “Inhibition of cataract formation, diseases resulting from oxidative stress, and HIV replication by caffeic acid esters” (priority 1994, dated 1997).

How the values were obtained:
tumor promotion = conditions: cited from earlier work
bovine lens (opacity) = conditions: cited from earlier work
HeLa cells = conditions: cited from earlier work
bovine lens (H2O2) = conditions: cited from earlier work
mammalian cells = conditions: cited from earlier work
[1] = system: TPA-induced oxidative processes (PMN infiltration, reactive oxygen species generation, DNA base oxidation); conditions: sarcophytol A 6.5 nmol, TPA 6.5 nmol/treatment; cited from earlier work

| SMILES | anti-tumor promoting properties (in words) (tumor promotion) | inhibition of TPA-mediated lens opacification (in words) (bovine lens (opacity)) | inhibition of TPA-mediated H2O2 production, lens (in words) (bovine lens (H2O2)) | other results |
| --- | --- | --- | --- | --- |
| O=C(O[C@@H]1Cc2c(O)cc(O)cc2O[C@@H]1c1cc(O)c(O)c(O)c1)c1cc(O)c(O)c(O)c1 [EGCG, (-)-epigallocatechin gallate] | known anti-tumor promoters | effective inhibitors | effective inhibitors | inhibition of TPA-induced oxidative processes (in words) (HeLa cells; EGCG 50 nmol): less effective inhibition of TPA-induced oxidative processes; HMdUrd and 8-OHdGua levels (in words) (HeLa cells; EGCG 5-25 nmol preincubation, TPA): contained lower levels of HMdUrd and 8-OHdGua than cells treated only with TPA |
| O=c1[nH]c(=O)n([C@H]2C[C@H](O)[C@@H](CO)O2)cc1CO [HMdUrd, 5-hydroxymethyl-2'-deoxyuridine] |  |  |  | cytotoxicity and mutagenicity (in words) (mammalian cells): cytotoxic and cytostatic to a number of mammalian cells and is mutagenic |
| O=C(O)/C=C/c1ccc(O)c(O)c1 [caffeic acid] | known anti-tumor promoters |  |  |  |
| COc1cc(/C=C/C(=O)CC(=O)/C=C/c2ccc(O)c(OC)c2)ccc1O [curcumin] | known anti-tumor promoters |  |  |  |
| C/C1=C\C=C(\C(C)C)[C@@H](O)C/C(C)=C/CC/C(C)=C/CC1 [sarcophytol A] | known anti-tumor promoters | effective inhibitors | effective inhibitors | inhibition of TPA-induced oxidative processes (in words) [1]: potent inhibitor |
